{"source": "patent US9857357B2", "about": "“Method of screening modulator of XKR8” (KYOTO UNIVERSITY, priority 2012, dated 2018)", "type_in_all_cases": "cell-based, human", "key": {"[1]": {"system": "Xkr8 mRNA in PLB-985 cells", "assay": "Real-time RT-PCR of Xkr8 mRNA in DAC-treated PLB-985 cells", "description": "To treat human PLB-985 cells with 5-aza-2′-deoxycytidine (DAC, Sigma-Aldrich), 1.0×10^6 cells in 10 ml of RPMI containing 10% FCS were incubated with 0.5 μM DAC for up to 7 days. Since DAC is an unstable compound, the medium containing DAC was changed every 24 hours. After DAC treatment, the cells were divided into three portions: one portion for FACS to analyze the PtdSer exposure, one for real-time RT-PCR for Xkr8 gene expression, and one for the methylation-specific PCR analysis^67. For the bisulfite genomic sequencing, the DNA was modified with bisulfite using a kit (MethyEasy Xceed, Human Genetic Signatures). In brief, 3 μg DNA was denatured by incubation at 37° C. for 15 min in 0.3 M NaOH, and treated with sodium bisulfite according to the protocol provided by the supplier except that the incubation time was changed to 90 min. The modified DNA was denatured at 95° C. for 20 min, and amplified by PCR using primers specific for the treated DNA ([…] (SEQ ID NO; 20) and […] (SEQ ID NO; 21)). PCR was carried out with EpiTaq HS polymerase (Takara Bio) for 7-40 cycles, and the product was cloned in a pGEM-Teasy vector for sequencing. […]\nThe specific mRNA was quantified at the point where the LightCycler System detected the upstroke of the exponential phase of PCR accumulation with the respective linearized plasmid DNA as reference."}, "[2]": {"system": "CpG sites of the hXkr8 gene promoter in PLB-985 cells", "assay": "Bisulfite genomic sequencing of CpG sites between -239 and +7 of the hXkr8 gene", "conditions": "0.5 μM DAC, day 7", "description": "To treat human PLB-985 cells with 5-aza-2′-deoxycytidine (DAC, Sigma-Aldrich), 1.0×10^6 cells in 10 ml of RPMI containing 10% FCS were incubated with 0.5 μM DAC for up to 7 days. Since DAC is an unstable compound, the medium containing DAC was changed every 24 hours. After DAC treatment, the cells were divided into three portions: one portion for FACS to analyze the PtdSer exposure, one for real-time RT-PCR for Xkr8 gene expression, and one for the methylation-specific PCR analysis^67. For the bisulfite genomic sequencing, the DNA was modified with bisulfite using a kit (MethyEasy Xceed, Human Genetic Signatures). In brief, 3 μg DNA was denatured by incubation at 37° C. for 15 min in 0.3 M NaOH, and treated with sodium bisulfite according to the protocol provided by the supplier except that the incubation time was changed to 90 min. The modified DNA was denatured at 95° C. for 20 min, and amplified by PCR using primers specific for the treated DNA ([…] (SEQ ID NO; 20) and […] (SEQ ID NO; 21)). PCR was carried out with EpiTaq HS polymerase (Takara Bio) for 7-40 cycles, and the product was cloned in a pGEM-Teasy vector for sequencing."}, "[3]": {"system": "PLB-985 cells", "assay": "PtdSer exposure (Cy5-Annexin V staining) of DAC-treated PLB-985 cells after UV irradiation", "conditions": "PLB-985 cells treated with DAC for five days, Cy5-Annexin V and PI", "description": "Apoptosis was induced by treating cells with FasL or staurosporine, or exposing them to UV. In brief, 5×10^5 cells in 500 μl of culture medium were incubated at 37° C. with 10-400 units/ml hFasL for 1.2-2.0 h or with 10 μM staurosporine for 1.5-4.0 h. For UV exposure, 1×10^6 cells in 2 ml of PBS were exposed to 500-2000 J/m UV radiation (254 nm) in a StrataLinker UV oven (Stratagene), and incubated at 37° C. for 1.5-2.0 h in 4 ml of RPMI1640 containing 10% FCS. To monitor Ca^2÷-ionophore-induced PtdSer exposure, cells (5×10^5 cells) in 500 μl of Annexin V staining buffer (10 mM Hepes-NaOH buffer [pH7.4] containing 140 mM NaCl and 2.5 mM CaCl2) were incubated at 20° C. for 3 min, treated with 3.0-10 μM A23187, and analyzed with FACSAria at 20° C.\nTo detect PtdSer and PtdEtn exposed on the cell surface, cells were stained on ice for 15 min with 2500-5000-fold diluted Cy5-Annexin V (Biovision) or 800-fold diluted-biotin-Ro09-0198^66 followed by 1.0 μg/ml APC-streptavidin in Annexin V staining buffer in the presence of 5 μg/ml propidium iodide (PI), and analyzed by FACSAria or FACSCalibur (BD Biosciences). […] Aliquots (150 μl) were mixed with 150 μl HBSS containing 5 μg/ml fatty-acid free BSA (Sigma-Aldrich) and 500 nM Sytoxblue (Molecular Probes), and analyzed by FACSAria. […]"}}}
{"smiles": "Nc1ncn([C@H]2C[C@H](O)[C@@H](CO)O2)c(=O)n1", "note": "[DAC, 5-aza-2′-deoxycytidine]", "values": [{"measurement": "Change of Xkr8 mRNA level", "setting": "[1]; 0.5 μM DAC for up to 7 days", "result": "gradually increased"}, {"measurement": "Xkr8 mRNA level relative to that in Namalwa cells", "setting": "[1]; 0.5 μM DAC, day 7", "result": "about 91%"}, {"measurement": "Methylation status of the 23 CpG sites between -239 and +7", "setting": "[2]", "result": "highly demethylated"}, {"measurement": "PtdSer exposure in response to UV irradiation", "setting": "[3]", "result": "gained the ability to expose PtdSer"}]}
